Laboratory results: patent US9126060B2, “Cosmetic use of geranylgeranyl-2-propanol” (SEDERMA, priority 2010, dated 2015)

Tests used:
[1] = test system: human dermal fibroblasts; experiment: ATP synthesized by fibroblasts in premature senescence after oxidizing stress (chemiluminescence); assay type: cell-based; details: for ATP: after hydrogen peroxide stress
Protocol: Principle: human dermal fibroblasts at confluence received the GGP for 24 h. After this phase, they were treated with hydrogen peroxide in the presence or absence of the GGP. This stress is intended to induce premature senescence (SIPS) in cells and thus a decrease in ATP synthesis. A few hours after this stress, cells were lysed and the amount of intracellular ATP was assessed by chemiluminescence. This amount of ATP was divided by the amount of intracellular proteins.

[2] = test system: presenescent fibroblasts; experiment: Mitochondrial membrane potential of presenescent fibroblasts (dye ratio λ520/λ590); assay type: cell-based; details: for Improvement of the respiration potential / Change with regard to non stressed young cells: with oxidative stress; for Change with regard to non stressed young cells: control −100%
Description: It is possible to measure the membrane potential through a specific membrane dye. Depending on the level of the membrane potential, this dye is rather present as monomer (emission fluorescence at 520 nm) or rather in the multimetric form (fluorescence emission at 590 nm). High membrane potential promotes a multimetric form.
The ratio λ520/λ590 varies inversely with the membrane potential. The lower the ratio is, the higher the membrane potential is. The increase in the ratio thus reflects a decrease in membrane potential. The ratio λ520/λ590 for young and proliferating cells is 2.97+/−0.17.
[…] After this period, the membrane potential of half of the cultures was measured.
The other half of the cultures underwent an oxidative stress (hydrogen peroxide) before measuring their membrane potential.

[3] = test system: fibroblasts; experiment: DNA array gene expression on fibroblasts; assay type: cell-based
[4] = test system: hyaluronic acid; experiment: Hyaluronic acid synthesis in human fibroblasts; assay type: cell-based; details: for hyaluronic acid (AH): 24 hours, n = 5
Protocol: Principle: Human dermal fibroblasts were grown in plate for 24 hours. The cells are then placed in contact or not with GGP for 24 hours. Culture supernatants were collected and assayed for the amount of hyaluronic acid (HA) is then divided by the number of cells present on the layer. TGF-β1 is used as a positive control.

[5] = test system: human dermal fibroblasts; experiment: Collagen gel contraction by human dermal fibroblasts cultivated until presenescence; assay type: cell-based; details: for Gel heterogeneity / Gel surface: n = 5
Description: Principle: Proliferative human dermal fibroblasts were cultivated with or without the GGP over several generations to obtain presenescent cells. A constant number of cells from each case was then included in a collagen gel. The contractile capacity of cells was then followed by using photographs. Quantification by image analysis, focused on the intensity of the contraction (gel surface) and the contraction quality (gel heterogeneity).

[6] = test system: syndecan 1; experiment: Syndecan 1 synthesis in NHK supernatants (ELISA); assay type: cell-based, human; details: for Syndecan 1: 48 h, n = 3
Protocol: Principle: Human keratinocytes (NHK) are cultivated in a growth medium. After 6 days of incubation, the cells are contacted or not with the tested products (GGP and GGA) at 3, 5 or 7 ppm for 48 h. After incubation, the supernatants are taken and the syndecan 1 content is assayed by ELISA in these supernatants. The cell layers are sonicated and the cell number is evaluated by Hoechst method.

[7] = after 3, 6 and 24 hours of contact
[8] = after 6 and 24 hours of contact

CC(C)=CCC/C(C)=C/CC/C(C)=C/CC/C(C)=C/CCC(C)O (centres unmarked) [GGP, 6,10,14,18-tetramethylnonadeca-5,9,13,17-tetraen-2-ol]
Change (%) of ATP vs after-stress control ([1]; 5 ppm): +76%; p <
ATP ([1]; 5 ppm): 311 +/− 80 nM/0.1 μg protein
Change (%) of ATP vs after-stress control ([1]; 7 ppm): +460%; p <
ATP ([1]; 7 ppm): 988 +/− 38 nM/0.1 μg protein
% of protection of the respiration potential ([2]; 3 ppm, no stress): +22%; nsd
ΔΨ loss with regard to non stressed young cells ([2]; 3 ppm, one week, no stress): 1.11 +/− 0.33
Improvement of the respiration potential ([2]; 3 ppm): +35%; p < 0.05
ΔΨ loss with regard to non stressed young cells ([2]; 3 ppm, with oxidative stress (hydrogen peroxide)): 3.57 +/− 0.69
Change with regard to non stressed young cells ([2]; 3 ppm): −65%
% of protection of the respiration potential ([2]; 5 ppm, no stress): +41%; p < 0.01
ΔΨ loss with regard to non stressed young cells ([2]; 5 ppm, one week, no stress): 0.84 +/− 0.08
Improvement of the respiration potential ([2]; 5 ppm): +63%; p < 0.01
ΔΨ loss with regard to non stressed young cells ([2]; 5 ppm, with oxidative stress (hydrogen peroxide)): 2.03 +/− 0.69
Change with regard to non stressed young cells ([2]; 5 ppm): −37%
gene expression of actin gamma 2 (ACTG2) [3, 7]: increase in gene expression
gene expression of filament associated actin protein (AFAP1L1) [3, 7]: increase in gene expression
gene expression of hyaluronic acid synthase 2 [3, 7]: increase in gene expression
expression of JMJD6 gene [3, 8]: increased expression
expression of PLOD2 gene [3, 8]: increased expression
% of change of hyaluronic acid vs control ([4]; 3 ppm): +23%
hyaluronic acid (AH) ([4]; 3 ppm): 5322 +/− 157 ng of AH/10^6 cells
% of change of hyaluronic acid vs control ([4]; 5 ppm): +33%
hyaluronic acid (AH) ([4]; 5 ppm): 5758 +/− 82 ng of AH/10^6 cells
% of change of hyaluronic acid vs control ([4]; 7 ppm): +41%
hyaluronic acid (AH) ([4]; 7 ppm): 6101 +/− 320 ng of AH/10^6 cells
% of change of hyaluronic acid vs control ([4]; 10 ppm): +46%
hyaluronic acid (AH) ([4]; 10 ppm): 6331 +/− 365 ng of AH/10^6 cells
% change of gel surface vs control ([5]; 3 ppm): −17.5%; p < 0.01
Gel heterogeneity ([5]; 3 ppm): 22.9 +/− 4.1 UA
Gel surface ([5]; 3 ppm): 6.12 ± 1.94 cm^2
% change of gel surface vs control ([5]; 5 ppm): −21.5%; p < 0.01
Gel heterogeneity ([5]; 5 ppm): 21.8 +/− 3.6 UA
Gel surface ([5]; 5 ppm): 5.82 ± 1.69 cm^2
Change (%) of syndecan 1 vs control ([6]; 3 ppm): +96%; p < 0.01
Syndecan 1 ([6]; 3 ppm): 135.3 +/− 6.3 pg/10^6 cell
Change (%) of syndecan 1 vs control ([6]; 5 ppm): +190%; p < 0.01
Syndecan 1 ([6]; 5 ppm): 200.6 +/− 15.8 pg/10^6 cell
Syndecan 1 ([6]; 7 ppm): 265.5 +/− 24.3 pg/10^6 cell
